From US7084268B1, “Carbapenem compound crystals and interjection preparations” (Eisai Co., Ltd., priority 1999, dated 2006)
Structures can show the parent of a compound that is named as a salt.

Assays:
Format in all cases: physicochemical
[1] = Color difference after degasification of vial at various pressures and replacement by nitrogen; conditions: 80° C./1 week, n = 6
Method: As the monohydrate, the powdery charged preparations for injection of the novel carbapenem crystals (25 mg/vial) obtained by degasification of the air in the vial at 100, 10, 1, 0.1 and 0.01 hPa (hectopascal) respectively and subsequent replacement by nitrogen according to the method in Example 2-3 (replacement by nitrogen) were stored at 60° C. for 1 or 4 weeks (N=6) and then measured for their color difference (ΔE). The oxygen concentrations in the preparations in vials degasified at 100, 10, 1, 0.1, 0.01 hPa (hectopascal) were measured by an oxygen analyzer (RO-101, Iizima Kogyo). As the trihydrate, the powdery charged preparations of the novel carbapenem hydrochloride crystals (25 mg/vial) obtained in the method in Example 1-9 (replacement by nitrogen) were degasified in the same manner, stored at 80° C. for 1 week (N=6) and then measured for their color difference (ΔE). As the control, the powdery charged preparation of the novel carbapenem hydrochloride crystals (25 mg/vial) subjected to neither degasification nor replacement by nitrogen was used.

[2] = Storage of crystals in bottles without caps at various relative humidity, with or without oxygen absorbent; conditions: 25° C., 2 weeks; for water content (hygroscopicity): listed as trihydrate crystals, monohydrochloride trihydrate
Method: The novel carbapenem hydrochloride crystals were weighed in 25 mL wide-mouthed glass bottles (30 mg/bottle), and in the bottles without caps, the monohydrate was stored for 1 week at 40° C. at a relative humidity of 0%, 19.2%, 53% and 75%, and the trihydrate was stored for 2 weeks at 25° C. at a relative humidity of 11%, 33%, 51%, 75% and 93%. Then, the crystals were measured for their color difference (ΔE), water content, powdery X-ray diffraction pattern, and content of residual carbapenem. The monohydrate was also examined in the presence or absence of an oxygen absorbent (trade name: Ageless, produced by Mitsubishi Gas Chemical Co., Ltd.) during storage at each relative humidity. The oxygen absorbent makes oxygen-free conditions under which the preparation is placed.

[3] = Effect of degasification of the air in a vial and/or replacement by nitrogen (storage of powdery charged preparations); conditions: 25 mg/vial, storage at 40° C. for 1 month
Method: As the monohydrate crystals, the powdery charged preparation of the novel carbapenem hydrochloride crystals (25 mg/vial) obtained in the method in Example 2-3 (replacement by nitrogen), the powdery charged preparation (25 mg/vial) subjected to replacement by oxygen in place of replacement by nitrogen in Example 2-3, and the powdery charged preparation (25 mg/vial) not subjected to replacement in Example 2-2 were stored at 60° C. for 5 days (N=3) and then measured for their color difference (ΔE), water content, powdery x-ray diffraction pattern, content of residual carbapenem and HPLC impurities. As the trihydrate crystals, the powdery charged preparation of the novel carbapenem hydrochloride crystals (25 mg/vial) obtained by the method (replacement by nitrogen) in Example 1-9 and the powdery charged preparation (25 mg/vial) not subjected to replacement in Example 1-8 were stored at 40° C. for 1 month and then measured for their color difference (ΔE), water content and content of residual carbapenem. The color difference was evaluated by a color difference meter (ZE-200, Nippondenso Co., Ltd.); the water content by a Karl-Fisher moisture meter (CA-05, Mitsubishi Kagaku Kogyo); the powdery X-ray diffraction under the method and conditions in Example 1-1 or 2-1; and the content of residual carbapenem and HPLC impurities by high performance liquid chromatography (Shimadzu Corporation). The color difference (ΔE) is a parameter indicative of a change in the color of the outward appearance of crystals, and its higher value indicates a greater coloration change than at an initial stage (just after production).

[4] = Storage of crystals in bottles without caps at various relative humidity, with or without oxygen absorbent; conditions: 25° C., 2 weeks, listed as trihydrate crystals, monohydrochloride trihydrate
[5] = Solubility in 62.5% (v/v) aqueous organic solvents, quantification in HPLC; conditions: 20° C., 30 minutes, monohydrochloride trihydrate
Method: The solubility of (+)-(1R,5S,6S)-6-[(R)-1-hydroxyethyl]-1-methyl-2-[(2S,4S)-2-[(3R)-pyrrolidine-3-yl-(R)-hydroxymethyl]pyrrolidine-4-yl]thio-1-carbapen-2-em-3-carboxylic acid monohydrochloride monohydrate and trihydrate in various aqueous organic solvents at a concentration of 62.5% (v/v) in water at 20° C. was determined by HPLC in the following manner.

color difference (ΔE) ([1]; control: neither degasification nor replacement by nitrogen): 10.06
color difference (ΔE) ([1]; vial degasified at 1 hPa, replaced by nitrogen): 3.62
color difference (ΔE) ([1]; vial degasified at 10 hPa, replaced by nitrogen): 3.92
color difference (ΔE) ([1]; vial degasified at 100 hPa, replaced by nitrogen): 4.90
powdery X-ray diffraction pattern (hygroscopicity) ([2]; relative humidity 11%): no change
powdery X-ray diffraction pattern (hygroscopicity) ([2]; relative humidity 33%): no change
water content (hygroscopicity) ([2]; relative humidity 33%): 11.1%
powdery X-ray diffraction pattern (hygroscopicity) ([2]; relative humidity 51%): no change
water content (hygroscopicity) ([2]; relative humidity 51%): 11.1%
powdery X-ray diffraction pattern (hygroscopicity) ([2]; relative humidity 75%): no change
powdery X-ray diffraction pattern (hygroscopicity) ([2]; relative humidity 93%): no change
color difference (ΔE) ([3]; control (air)): 2.78
content of residual carbapenem compound ([3]; control (air)): 101.0%
water content ([3]; control (air)): 12.0%
color difference (ΔE) ([3]; gas for replacement nitrogen): 0.00
content of residual carbapenem compound ([3]; gas for replacement nitrogen): 100.2%
water content ([3]; gas for replacement nitrogen): 11.3%
water content (hygroscopicity) ([4]; relative humidity 11%): 11.0%
water content (hygroscopicity) ([4]; relative humidity 75%): 11.1%
water content (hygroscopicity) ([4]; relative humidity 93%): 11.4%
solubility ([5]; 62.5% (v/v) 1-ethoxy-2-propanol in water): 3320 µg/mL
solubility ([5]; 62.5% (v/v) 1-methoxy-2-propanol in water): 3370 µg/mL
solubility ([5]; 62.5% (v/v) 2-ethoxyethanol in water): 4360 µg/mL
solubility ([5]; 62.5% (v/v) 2-isopropoxyethanol in water): 4360 µg/mL
solubility ([5]; 62.5% (v/v) 2-methoxyethanol in water): 6390 µg/mL
solubility ([5]; 62.5% (v/v) 3-methoxy-3-methyl-1-butanol in water): 4860 µg/mL
solubility ([5]; 62.5% (v/v) 3-methoxybutanol in water): 3240 µg/mL
solubility ([5]; 62.5% (v/v) IPA (isopropyl alcohol) in water): 4740 µg/mL
solubility ([5]; 62.5% (v/v) acetonitrile in water): 12990 µg/mL
solubility ([5]; 62.5% (v/v) diethylene glycol monoethyl ether in water): 2680 µg/mL
solubility ([5]; 62.5% (v/v) diethylene glycol monomethyl ether in water): 2410 µg/mL
solubility ([5]; 62.5% (v/v) dimethyl acetamide in water): 4530 µg/mL
solubility ([5]; 62.5% (v/v) dimethyl ether in water): 1440 µg/mL
solubility ([5]; 62.5% (v/v) dimethyl formamide in water): 7310 µg/mL
solubility ([5]; 62.5% (v/v) dimethyl sulfoxide in water): 11840 µg/mL
solubility ([5]; 62.5% (v/v) ethanol in water): 6320 µg/mL
solubility ([5]; 62.5% (v/v) methanol in water): 14380 µg/mL
solubility ([5]; 62.5% (v/v) n-propanol in water): 10460 µg/mL
solubility ([5]; 62.5% (v/v) t-butanol in water): 6060 µg/mL
solubility ([5]; 62.5% (v/v) tetrahydrofuran in water): 5290 µg/mL
solubility ([5]; 62.5% (v/v) triethylene glycol monomethyl ether in water): 2470 µg/mL
Compound: C[C@@H](O)[C@H]1C(=O)N2C(C(=O)O)=C(S[C@@H]3CN[C@H]([C@H](O)[C@@H]4CCNC4)C3)[C@H](C)[C@H]12 [trihydrate, (+)-(1R,5S,6S)-6-[(R)-1-Hydroxyethyl]-1-methyl-2-[(2S,4S)-2-[(3R)-pyrrolidine-3-yl-(R)-hydroxymethyl]pyrrolidine-4-yl]thio-1-carbapen-2-em-3-carboxylic acid monohydrochloride trihydrate]
solubility ([5]; 62.5% (v/v) 1-acetoxy-2-methyl ethane in water): 2850 µg/mL
solubility ([5]; 62.5% (v/v) 2-butoxyethanol in water): 11850 µg/mL
